The values below are quoted from earlier work in patent US10857210B2, “Compositions and methods to promote wound healing” (Wayne State University, priority 2015, dated 2020).

One series relates to Tet promoter. The following applies: relative to tetracycline.

Consider `Cc1c2c(c(O)c3c(O)cccc13)C(=O)[C@]1(O)C(=O)C(C(N)=O)=C(O)[C@@H](N(C)C)[C@@H]1C2` [anhydrotetracycline], for which the solubility in water entry is “fully soluble in water”. Besides, in the series on Tet promoter, the “concentration that activates the Tet promoter, lower than with tetracycline” value is listed as 2 logs.
